From patent US10745395B2, “Compounds for their use as drugs for the treatment and/or the prevention of infection(s) caused by biofilm-forming bacteria” (CENTRE NATIONAL DE LA RECHERCHE SCIENTIFIQUE, priority 2014, dated 2020)

Columns and labels:
Type in all cases: cell-based, Pseudomonas aeruginosa
[1] = tested on: P. aeruginosa strain PAR 50 biofilm; experiment: Reduction of biofilm growth (percent vs culture control)
From the text: (§1) FIG. 4C represents the effect of the tested compounds (1, 2, 3 and 4) on exopolysaccharide biosynthesis in the early stages and mature P. aeruginosa biofilm formation, strain PAR 50. The abscissa represents the time (in hours) in order to differentiate early biofilm and mature biofilm, and the ordinate represents the percentage of the biofilm reduction.
(§2) Early biofilm model: formation of early biofilm under influence of the tested substances was observed by filling wells of a 96-well plate with 20 μl of P. aeruginosa suspension and 180 μl of TSB, as described above. Tested iminosugars (compounds 1, 2, 3 and 4) were added immediately after setting-up the bacteria at a final concentration of 0.9 mM. Then, the plate was gently mixed and incubated for 48 hours at 37° C.
(§3) Mature biofilm model: the tested substances were added 48 hours after adherence of bacteria to the wells in a 96-well plate. The growth conditions of P. aeruginosa were exactly the same, as described above for the early biofilm model.
(§4) The effect of the tested compounds (1, 2, 3 and 4) on the reduction of biofilm growth has also been studied on the three P. aeruginosa strains PAR 5, PAR 20, PAR 50.
(§5) (Percent decrease in biofilm thickness was obtained as a mean value from 3 consecutive measurements of the Congo Red stained biofilm using spectrophotometer after addition of the tested iminosugars in comparison to control regarded as 100%).

[2] = tested on: P. aeruginosa strain PAR 50 biofilm; experiment: Early biofilm model, Congo red staining; details: for absorbance (Congo red, biofilm formation): early biofilm, 0.9 mM, 492 nm
Method: (§6) P. aeruginosa biofilm was set-up in sterile plastic 96-well plates with adherent surface (Greiner Bio-One, USA).
(§7) Twenty microliter quantities of the bacterial stock suspensions, prepared as described above, were added to each well followed with 180 μl of sterile TSB. Final concentration of the bacteria was 1×10^8 CFU/ml.
(§8) The plates were centrifuged for 10 minutes at 2000 rpm to sediment bacteria on the bottom of each well and then incubated for 72 hours (37° C., aerobic conditions).
(§9) Biofilm quantity was determined using Congo red dye according to a modified procedure described by Allison et al. (Allison G C, Sutherland I W. A staining technique for bacteria and its correlation to extracellular carbohydrate production. J Microbiol Meth 2, 93-99 (1984)).
(§10) Briefly, at different time points (0, 6, 18, 24, 48 and 72 hours), the culture medium was gently removed from wells by using the pipette and immediately 200 μl of 0.1% Congo red solution was added. The plates were left for 30 minutes at room temperature and then 10 minutes before the end of staining, the plate was centrifuged for 10 minutes at 2000 rpm and then washed twice with buffered saline to remove unbound dye. Absorbance was measured at λ=492 nm wavelength using spectrophotometer (Awarness Technology Inc., Palm City, Fla., USA). All measurements were performed in triplicates and mean values±SD are given.
as §2
(§11) Biofilm formation and the number of viable bacteria were checked in parallel in the following time intervals: 0, 0.5, 8, 24, 48 hours, in accordance with the procedure described above. Biofilm thickness was estimated by staining it with Cango Red and measuring optical density while number of viable bacteria was performed using the standard viable count method. (Allison G C, Sutherland I W. A staining technique for bacteria and its correlation to extracellular carbohydrate production. J Microbiol Meth 2, 93-99 (1984)).
(§12) P. aeruginosa suspension cultures in TSB broth alone were used as a control.

[3] = tested on: P. aeruginosa strain PAR 5 biofilm; experiment: Early biofilm model, Congo red staining; details: for absorbance (Congo red, biofilm formation): 0.9 mM, 492 nm
Method: as §6, §7, §8, §9, §10, §2, §11, §12

[4] = tested on: P. aeruginosa strain PAR 20 biofilm; experiment: Early biofilm model, Congo red staining; details: for absorbance (Congo red, biofilm formation): early biofilm, 0.9 mM, 492 nm
Method: as §6, §7, §8, §9, §10, §2, §11, §12

[5] = tested on: P. aeruginosa strain PAR 5 biofilm; experiment: Reduction of biofilm growth (percent vs culture control)
From the text: as §1, with “4A” for “4C”, “5.” for “50.”
as §2, §3, §4, §5

[6] = tested on: P. aeruginosa strain PAR 50 biofilm; experiment: Mature biofilm model, Congo red staining; details: for absorbance (Congo red, biofilm development): mature biofilm, compound added 48 h after induction of biofilm
Method: as §9, §10, §3
(§13) After the addition of iminosugars (compounds 1, 2, 3 and 4), the biofilm formation and the number of viable bacteria were checked in the following time intervals: 48, 48.5, 56, 72, 96 hours.

[7] = tested on: P. aeruginosa strain PAR 5 biofilm; experiment: Mature biofilm model, Congo red staining; details: for absorbance (Congo red, biofilm development): mature biofilm, compound added 48 h after induction of biofilm
Method: as §9, §10, §3, §13

[8] = tested on: P. aeruginosa strain PAR 20 biofilm; experiment: Mature biofilm model, Congo red staining; details: for absorbance (Congo red, biofilm development): mature biofilm, compound added 48 h after induction of biofilm
Method: as §9, §10, §3, §13

[9] = tested on: P. aeruginosa strain PAR 20 biofilm; experiment: Reduction of biofilm growth (percent vs culture control)
From the text: as §1, with “4B” for “4C”, “20.” for “50.”
as §2, §3, §4, §5

[10] = tested on: P. aeruginosa strain PAR 20; experiment: Number of viable bacteria in early and mature biofilm (viable count)
Method: as §11, §13
(§14) Numbers of viable bacteria contained in the early and mature biofilm were estimated on separate plates with wells filled with tested P. aeruginosa strains as described above (PAR 5, PAR 20, PAR 50).
(§15) At the same time intervals, biofilm content in each well was removed and mixed by multiple pippeting and transferred to sterile tubes. Then decimal dilutions of the bacterial suspension were made in TSB broth, plated on McConkey Agar (Oxoid), and incubated at 37° C. for 24 hours.
(§16) Numbers of colonies grown on platter were counted and total numbers of the viable bacteria calculated as colony forming units (CFU) per ml.
(§17) The results depict logs of CFU/ml for three P. aeruginosa strains: PAR 5, PAR 20 and PAR 50 measured at different time intervals (0 hours, 8 hours, 24 hours, 48 hours, 56 hours, 72 hours and 96 hours). The detection limit is 100 CFU/ml.

[11] = tested on: P. aeruginosa strain PAR 50; experiment: as above
Method: as §11, §13, §14, §15, §16, §17

[12] = tested on: P. aeruginosa strain PAR 5; experiment: as above
Method: as §11, §13, §14, §15, §16, §17

[13] = in comparison with culture control

With CCCCCC[C@H]1NC[C@@H](O)[C@H](O)[C@H]1O [Compound 1, α-1-C-hexyl-1,5-dideoxy-1,5-imino-D-xylitol] the “reduction of biofilm growth” value ([1]; 8 hours of incubation) was “about 30%”, the “reduction of biofilm growth” value ([1]; 24 hours of incubation) was “about 30%” and the “reduction of biofilm growth” value ([1]; 48 hours of incubation) was “about 0%”. The “reduction of biofilm growth” value ([1]; 72 hours of incubation) was “about 0%”, the “effect on biofilm growth” value ([1]; notably an early biofilm) was “can reduce the biofilm growth” and the “absorbance (Congo red, biofilm formation)” value ([2]; 8 hours) was “about 0.5 a.u”. For the same compound, the “absorbance (Congo red, biofilm formation)” value ([2]; 24 hours) was “about 0.8 a.u”, the “absorbance (Congo red, biofilm formation)” value ([2]; 48 hours) was “about 0.9 a.u” and the “effect on formation of an early biofilm” value [2, 13] was “inhibit the formation of an early biofilm”. For the same compound, the “biofilm formation at 8 hours, 24 hours and 48 hours” value ([3]; early biofilm) was “no biofilm formation”, the “absorbance (Congo red, biofilm formation)” value ([3]; early biofilm, 8 hours) was “about 0.25 a.u” and the “absorbance (Congo red, biofilm formation)” value ([3]; early biofilm, 24 hours) was “about 0.25 a.u”. The “absorbance (Congo red, biofilm formation)” value ([3]; early biofilm, 48 hours) was “about 0.25 a.u”, the “effect on formation of an early biofilm” value [3, 13] was “inhibit the formation of an early biofilm” and the “absorbance (Congo red, biofilm formation)” value ([4]; 8 hours) was “about 1.0 a.u”. For the same compound, the “absorbance (Congo red, biofilm formation)” value ([4]; 24 hours) was “about 1.0 a.u”, the “absorbance (Congo red, biofilm formation)” value ([4]; 48 hours) was “about 0.75 a.u” and the “effect on formation of an early biofilm” value [4, 13] was “inhibit the formation of an early biofilm”. For the same compound, the “reduction of biofilm growth” value ([5]; 8 hours of incubation) was “about 90%”, the “reduction of biofilm growth” value ([5]; 24 hours of incubation) was “about 90%” and the “reduction of biofilm growth” value ([5]; 48 hours of incubation) was “about 25%”. The “reduction of biofilm growth” value ([5]; 72 hours of incubation) was “about 10%”, the “effect on biofilm growth” value ([5]; notably an early biofilm) was “can reduce the biofilm growth” and the “influence on mature biofilm formation” value [6] was “weak influence”. The “absorbance (Congo red, biofilm development)” value ([6]; 48 hours) was “about 1.6 a.u”, the “absorbance (Congo red, biofilm development)” value ([6]; 56 hours) was “about 1.5 a.u” and the “absorbance (Congo red, biofilm development)” value ([6]; 72 hours) was “about 2.4 a.u”. The “absorbance (Congo red, biofilm development)” value ([6]; 96 hours) was “about 1.9 a.u”, the “influence on mature biofilm formation” value [7] was “weak influence” and the “absorbance (Congo red, biofilm development)” value ([7]; 48 hours) was “about 0.7 a.u”. For the same compound, the “absorbance (Congo red, biofilm development)” value ([7]; 56 hours) was “about 1.1 a.u”, the “absorbance (Congo red, biofilm development)” value ([7]; 72 hours) was “about 1.25 a.u” and the “absorbance (Congo red, biofilm development)” value ([7]; 96 hours) was “about 0.5 a.u”. The “influence on mature biofilm formation” value [8] was “weak influence”, the “absorbance (Congo red, biofilm development)” value ([8]; 48 hours) was “about 0.75 a.u” and the “absorbance (Congo red, biofilm development)” value ([8]; 56 hours) was “about 0.6 a.u”. The “absorbance (Congo red, biofilm development)” value ([8]; 72 hours) was “about 1.5 a.u”, the “absorbance (Congo red, biofilm development)” value ([8]; 96 hours) was “about 1.0 a.u” and the “reduction of biofilm growth” value ([9]; 8 hours of incubation) was “about 30%”. For the same compound, the “reduction of biofilm growth” value ([9]; 24 hours of incubation) was “about 40%”, the “reduction of biofilm growth” value ([9]; 48 hours of incubation) was “about 40%” and the “reduction of biofilm growth” value ([9]; 72 hours of incubation) was “about 0%”. The “effect on biofilm growth” value ([9]; notably an early biofilm) was “can reduce the biofilm growth”, the “number of viable P. aeruginosa” value ([10]; early biofilm, 0 h) was 4 × 10^6 CFU/ml and the “number of viable P. aeruginosa” value ([10]; early biofilm, 8 h) was 7 × 10^7 CFU/ml. The “number of viable P. aeruginosa” value ([10]; early biofilm, 24 h) was 1 × 10^8 CFU/ml, the “number of viable P. aeruginosa” value ([10]; early biofilm, 48 h) was 4 × 10^8 CFU/ml and the “number of viable P. aeruginosa” value ([10]; mature biofilm, 56 h) was 6 × 10^7 CFU/ml. For the same compound, the “number of viable P. aeruginosa” value ([10]; mature biofilm, 72 h) was 5 × 10^7 CFU/ml, the “number of viable P. aeruginosa” value ([10]; mature biofilm, 96 h) was 1 × 10^8 CFU/ml and the “number of viable P. aeruginosa” value ([11]; early biofilm, 0 h) was 8 × 10^7 CFU/ml. The “number of viable P. aeruginosa” value ([11]; early biofilm, 8 h) was 2 × 10^8 CFU/ml, the “number of viable P. aeruginosa” value ([11]; early biofilm, 24 h) was 4 × 10^8 CFU/ml and the “number of viable P. aeruginosa” value ([11]; early biofilm, 48 h) was 3 × 10^8 CFU/ml. The “number of viable P. aeruginosa” value ([11]; mature biofilm, 56 h) was 2 × 10^9 CFU/ml, the “number of viable P. aeruginosa” value ([11]; mature biofilm, 72 h) was 1 × 10^9 CFU/ml and the “number of viable P. aeruginosa” value ([11]; mature biofilm, 96 h) was 1 × 10^9 CFU/ml. The “number of viable P. aeruginosa” value ([12]; early biofilm, 0 h) was 2 × 10^6 CFU/ml, the “number of viable P. aeruginosa” value ([12]; early biofilm, 8 h) was 3 × 10^7 CFU/ml and the “number of viable P. aeruginosa” value ([12]; early biofilm, 24 h) was 9 × 10^7 CFU/ml. For the same compound, the “number of viable P. aeruginosa” value ([12]; early biofilm, 48 h) was 1 × 10^8 CFU/ml, the “number of viable P. aeruginosa” value ([12]; mature biofilm, 56 h) was 3 × 10^8 CFU/ml and the “number of viable P. aeruginosa” value ([12]; mature biofilm, 72 h) was 2 × 10^8 CFU/ml. For the same compound, the “number of viable P. aeruginosa” value ([12]; mature biofilm, 96 h) was 3 × 10^8 CFU/ml.
